Laboratory results reported in US7585861B2, “HIV inhibiting 1,2,4-triazines” (Janssen Pharmaceutica, N.V., priority 2003, dated 2009).

Experiments:
mock-infected MT-4 cells [1] = experiment: Test B: cytotoxicity in mock-infected MT-4 cells engineered with GFP under a constitutional promoter; format: cell-based
Procedure: (§1) An […] T4-cell line, MT-4, which was previously shown (Koyanagi et al., Int. J. Cancer, 36, 445-451, 1985) to be highly susceptible to and permissive for HIV infection, served as the target cell line. In these cells, engineered with GFP (and an HIV-specific promotor), ongoing HIV-infection was measured fluorometrically. Cytotoxicity is measured in the same cells, but engineered with GFP under a constitutional promoter. The infection (or inhibition thereof) of HIV infected cells and the flourescence of mock-infected cells is assessed by the fluorescent GFP signal generated by the two above mentioned cell lines.

HIV [2] = experiment: Test A: inhibition of the HIV-induced cytopathic effect in MT-4 cells (MTT); format: cell-based; settings: Test A; MT-4 cells, MTT; pIC50 = −log IC50, dose achieving 50% protection
Procedure: (§2) A rapid, sensitive and automated assay procedure was used for the in vitro evaluation of anti-HIV agents. An […] T4-cell line, MT-4, which was previously shown (Koyanagi et al., Int. J. Cancer, 36, 445-451, 1985) to be highly susceptible to and permissive for HIV infection, served as the target cell line. Inhibition of the HIV-induced cytopathic effect was used as the end point. The viability of both HIV- and mock-infected cells was assessed spectrophotometrically via the in situ reduction of 3-(4,5-dimethylthiazol-2-yl)-2,5-diphenyltetrazolium bromide (MTT). […] The percent protection achieved by the compound in HTV-infected cells was calculated by the following formula:
(§3) [formula] whereby (ODT)HIV is the optical density measured with a given concentration of the test compound in HIV-infected cells; (ODC)HIV is the optical density measured for the control unteated HIV-infected cells; (ODC)MOCK is the optical density measured for the control untreated mock-infected cells; all optical density values were determined at 540 nm. […] The ratio of CC50 to IC50 was defined as the selectivity index (SI).

mock-infected MT-4 cells [3] = experiment: Test A: cytotoxicity in mock-infected MT-4 cells (MTT); format: cell-based
Procedure: as §2, §3

HIV [4] = experiment: Test B: HIV infection measured fluorometrically in MT-4 cells engineered with GFP (HIV-specific promotor); format: cell-based; settings: Human immunodeficiency virus 1, MT4
Procedure: as §1

[5] = Test B: cytotoxicity in mock-infected MT-4 cells engineered with GFP under a constitutional promoter; format: cell-based; settings: human
Procedure: as §1

[6] = Test A, mock-infected MT-4 cells, MTT, 50% cytotoxic concentration (CC50 in M)

| pIC50 (M) (HIV [2]) | SMILES | PCC50 (mock-infected MT-4 cells [1]) | PCC50 (mock-infected MT-4 cells [3]) | other results |
| --- | --- | --- | --- | --- |
| – | Cc1cc(CCC#N)cc(C)c1Nc1nnc(Cl)c(Nc2ccc(C#N)cc2)n1 | – | – | melting point: 266 to 267 °C |
| – | N#CC=Cc1cc(Br)c(Nc2nnc(Cl)c(Nc3ccc(C#N)cc3)n2)c(Br)c1 (mixture of isomers) [Compound 78] | 5.1 | – | – |
| 9.0 | Cc1cc(CCC#N)cc(C)c1Nc1nc(Nc2ccc(C#N)cc2)nnc1C [Compound 2] | – | <4.0 | – |
| 8.7 | Cc1cc(C#N)cc(C)c1Nc1nc(Nc2ccc(C#N)cc2)nnc1C [Compound 5] | – | <4.0 | – |
| 7.3 | Cc1cc(/C=C/C#N)cc(C)c1Nc1cnnc(Nc2ccc(C#N)cc2)n1 [Compound 8] | – | <4.0 | – |
| 7.8 | Cc1cc(CCC#N)cc(C)c1Nc1cnnc(Nc2ccc(C#N)cc2)n1 [Compound 9] | – | <4.0 | – |
| 9.2 | COc1cc(C)c(Nc2nc(Nc3ccc(C#N)cc3)nnc2C)c(C)c1 [Compound 11] | – | 5.5 | – |
| 8.2 | Cc1cc(/C=C/C#N)cc(C)c1Nc1nc(Nc2ccc(C#N)cc2)nnc1C [Compound 13] | – | <4.0 | – |
| 8.8 | COc1cc(C)c(Nc2cnnc(Nc3ccc(C#N)cc3)n2)c(C)c1 [Compound 14] | – | <4.0 | – |
| 8.8 | Cc1cc(Br)cc(C)c1Nc1cnnc(Nc2ccc(C#N)cc2)n1 [Compound 15] | – | <4.0 | – |
| 8.7 | Cc1cc(Br)cc(C)c1Nc1nc(Nc2ccc(C#N)cc2)nnc1C [Compound 16] | – | 4.2 | – |
| 8.0 | Cc1cc(C(C)(C)C)cc(C)c1Nc1cnnc(Nc2ccc(C#N)cc2)n1 [Compound 17] | – | <4.0 | – |
| 8.1 | Cc1cc(C(C)(C)C)cc(C)c1Nc1nc(Nc2ccc(C#N)cc2)nnc1C [Compound 18] | – | <4.0 | – |
| 9.0 | Cc1cc(/C=C\C#N)cc(C)c1Nc1nc(Nc2ccc(C#N)cc2)nnc1C [Compound 19] | – | 4.6 | – |
| 7.1 | Cc1cc(/C=C/C(=O)N(C)C)cc(C)c1Nc1nc(Nc2ccc(C#N)cc2)nnc1C [Compound 22] | – | <4.6 | – |
| 8.9 | COc1cc(C)cc(C)c1Nc1nc(Nc2ccc(C#N)cc2)nnc1C [Compound 23] | – | 6.4 | – |
| 8.8 | Cc1cc(CC#N)cc(C)c1Nc1cnnc(Nc2ccc(C#N)cc2)n1 [Compound 24] | – | <4.6 | – |
| 8.6 | COc1cc(OC)c(Nc2nc(Nc3ccc(C#N)cc3)nnc2C)c(OC)c1 [Compound 25] | – | 4.4 | – |
| 8.3 | Cc1cc(C)c(Nc2nc(Nc3ccc(C#N)cc3)nnc2C)c(CC#N)c1 [Compound 27] | – | <4.0 | – |
| 7.5 | Cc1cc(C(=O)N(C)C)cc(C)c1Nc1nc(Nc2ccc(C#N)cc2)nnc1C [Compound 31] | – | <4.0 | – |
| 8.6 | COc1cc(/C=C/C#N)cc(OC)c1Nc1nc(Nc2ccc(C#N)cc2)nnc1C [Compound 33] | – | 5.4 | – |
| 8.6 | Cc1nnc(Nc2ccc(C#N)cc2)nc1Nc1c(Cl)cc(/C=C/C#N)cc1Cl [Compound 34] | – | 5.0 | – |
| 8.2 | CCOc1cc(C)c(Nc2nc(Nc3ccc(C#N)cc3)nnc2C)c(C)c1 [Compound 35] | – | <4.6 | – |
| 7.0 | CNC(=O)c1cc(C)c(Nc2cnnc(Nc3ccc(C#N)cc3)n2)c(C)c1 [Compound 37] | – | 4.3 | – |
| 8.9 | Cc1cc(OCC#N)cc(C)c1Nc1nc(Nc2ccc(C#N)cc2)nnc1C [Compound 38] | – | 4.7 | – |
| 7.2 | Cc1cc(/C=C/C(=O)N2CCCC2)cc(C)c1Nc1nc(Nc2ccc(C#N)cc2)nnc1C [Compound 39] | – | <4.0 | – |
| 8.6 | COc1cc(CCC#N)cc(OC)c1Nc1nc(Nc2ccc(C#N)cc2)nnc1C [Compound 40] | – | 5.0 | – |
| 7.6 | Cc1cc(OCC#N)cc(C)c1Nc1cnnc(Nc2ccc(C#N)cc2)n1 [Compound 41] | – | <4.6 | – |

| pIC50 (M) (HIV [2]) | SMILES | PCC50 (mock-infected MT-4 cells [1]) | PCC50 (mock-infected MT-4 cells [3]) | other results |
| --- | --- | --- | --- | --- |
| 9.1 | CC(C#N)=Cc1cc(C)c(Nc2nc(Nc3ccc(C#N)cc3)nnc2C)c(C)c1 [Compound 42] | – | 4.8 | – |
| 8.1 | CCOc1cc(C)c(Nc2cnnc(Nc3ccc(C#N)cc3)n2)c(C)c1 [Compound 43] | – | <4.6 | – |
| 8.1 | Cc1cc(/C=C/C(=O)N2CCOCC2)cc(C)c1Oc1nc(Nc2ccc(C#N)cc2)nnc1C [Compound 47] | – | <4.6 | – |
| – | Cc1cc(/C=C/C(N)=O)cc(C)c1Oc1nc(Nc2ccc(C#N)cc2)nnc1C [Compound 48] | – | – | IC50 (HIV [4]): 0.000631 µM; CC50 [5]: 25.1 µM |
| – | Cc1cc(/C=C/C(=O)N(C)C)cc(C)c1Oc1nc(Nc2ccc(C#N)cc2)nnc1C [Compound 50] | 4.7 | – | – |
| – | CCNC(=O)c1cc(C)c(Nc2cnnc(Nc3ccc(C#N)cc3)n2)c(C)c1 [Compound 51] | 5.1 | – | – |
| – | Cc1cc(C(=O)N(C)C)cc(C)c1Nc1cnnc(Nc2ccc(C#N)cc2)n1 [Compound 52] | <4.6 | – | – |
| – | Cc1cc(C=CC#N)cc(C)c1Nc1nnc(Cl)c(Nc2ccc(C#N)cc2)n1 [Compound 53] | 4.9 | – | – |
| – | Cc1cc(/C=C/C#N)cc(C)c1Nc1nc(Nc2ccc(C#N)cc2)nnc1Cl [Compound 54] | 4.9 | – | – |
| – | CNC(=O)/C=C/c1cc(C)c(Oc2nc(Nc3ccc(C#N)cc3)nnc2C)c(C)c1 [Compound 56] | 4.8 | – | – |
| – | CCN(C)C(=O)/C=C/c1cc(C)c(Oc2nc(Nc3ccc(C#N)cc3)nnc2C)c(C)c1 [Compound 57] | 4.7 | – | – |
| – | Cc1cc(/C=C/C(N)=O)cc(C)c1Nc1nc(Nc2ccc(C#N)cc2)nnc1C [Compound 58] | – | – | IC50 (HIV [4]): 0.251 µM; CC50 [5]: 10 µM |
| – | COc1cc(/C=C/C#N)cc(C)c1Nc1nc(Nc2ccc(C#N)cc2)nnc1C [Compound 60] | 6.0 | – | – |
| – | C/C(=C\C#N)c1cc(Cl)c(Nc2nc(Nc3ccc(C#N)cc3)nnc2C)c(Cl)c1 [Compound 61] | 5.4 | – | – |
| – | N#C/C=C/c1cc(F)c(Nc2nnc(Cl)c(Nc3ccc(C#N)cc3)n2)c(F)c1 [Compound 62] | – | – | IC50 (HIV [4]): 0.00316 µM; CC50 [5]: 25.1 µM; melting point: 276 to 277 °C |
| – | N#Cc1ccc(Nc2cnnc(Nc3c(F)cc(I)cc3F)n2)cc1 [Compound 63] | 4.9 | – | – |
| – | COc1cc(C)c(Nc2nnc(Cl)c(Nc3ccc(C#N)cc3)n2)c(C)c1 [Compound 64] | 4.7 | – | – |
| – | Cc1cc(/C=C/C#N)cc(Cl)c1Nc1nc(Nc2ccc(C#N)cc2)nnc1C [Compound 65] | 5.3 | – | – |
| – | COc1cc(C(C)=CC#N)cc(C)c1Nc1nc(Nc2ccc(C#N)cc2)nnc1C [Compound 66] | 5.7 | – | – |
| – | COc1cc(/C(C)=C/C#N)cc(OC)c1Nc1nc(Nc2ccc(C#N)cc2)nnc1C [Compound 67] | 4.9 | – | – |
| – | COc1cc(/C(C)=C/C#N)cc(Cl)c1Nc1nc(Nc2ccc(C#N)cc2)nnc1C [Compound 68] | 5.2 | – | – |
| – | C/C(=C\C#N)c1cc(C)c(Nc2nc(Nc3ccc(C#N)cc3)nnc2C)c(Cl)c1 [Compound 69] | 5.7 | – | – |
| – | COc1cc(/C=C/C#N)cc(Cl)c1Nc1nc(Nc2ccc(C#N)cc2)nnc1C [Compound 70] | 6.2 | – | – |
| – | COc1cc(C=C(C)C#N)cc(C)c1Nc1nc(Nc2ccc(C#N)cc2)nnc1C [Compound 71] | 5.1 | – | – |
| – | N#CCCc1cc(Br)c(Nc2nnc(Cl)c(Nc3ccc(C#N)cc3)n2)c(Br)c1 [Compound 73] | <4.6 | – | – |
| – | N#C/C=C/c1cc(Cl)c(Nc2nnc(Cl)c(Nc3ccc(C#N)cc3)n2)c(Cl)c1 [Compound 76] | <4.6 | – | – |
| – | N#C/C=C/c1cc(Cl)c(Nc2nnc(Cl)c(Nc3ccc(C#N)cc3)n2)c(Br)c1 [Compound 77] | 5.0 | – | – |

| SMILES | pIC50 (M) (HIV [2]) | PCC50 (mock-infected MT-4 cells [1]) | PCC50 (mock-infected MT-4 cells [3]) | other results |
| --- | --- | --- | --- | --- |
| Cc1cc(C)c(Nc2cnnc(Nc3ccc(C#N)cc3)n2)c(C)c1 [Compound 7] | 9.3 | – | – | PCC50 (mock-infected MT-4 cells [3]; [6]): 5.5 |
| N#Cc1ccc(Nc2nncc(Nc3c(Cl)cc(C#N)cc3Cl)n2)cc1 [Compound 10] | 7.6 | – | – | PCC50 (mock-infected MT-4 cells [3]; [6]): <4.5 |
| Cc1cc(C)c(Nc2nc(Nc3ccc(C#N)cc3)nnc2C)c(C)c1 [Compound 12] | 8.9 | – | – | – |
| Cc1cc(CC#N)cc(C)c1Nc1nc(Nc2ccc(C#N)cc2)nnc1C [Compound 20] | 8.6 | – | <4.6 | – |
| Cc1cc(C)c(Nc2nnc(Cl)c(Nc3ccc(C#N)cc3)n2)c(C)c1 [Compound 45] | 7.6 | – | <4.6 | – |
| Cc1cc(C)c(Sc2nc(Nc3ccc(C#N)cc3)nnc2Cl)c(C)c1 [Compound 46] | 7.9 | – | – | PCC50 (mock-infected MT-4 cells [3]; [6]): <4.6 |
